Tests used:
KRas G12C mutant = assay: Ras GTP Binding Domain Inhibition Assay (Ras Superfamily Assay); settings: 20 μM compound; for KRas G12C mutant + SOS: % inh.: with SOS; for KRas G12C mutant: % inh.: without SOS
Procedure, shortened: (§1)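 His-tagged GTPases immobilised on nickel-coated plates, pre-incubated with compound (20 μM single point, or serial dilution for IC50) 3 h at room temperature, with or without 10-30 μg/mL Sos (residues 556-1049) in the final hour. Bound Cy3- or Cy5-GTP (100 nM, 45 min) measured by fluorescence after washing.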

KRas Q61H mutant = assay: as above; settings: 20 μM compound; for KRas Q61H mutant + SOS: % inh.: with SOS; for KRas Q61H mutant: % inh.: without SOS
Procedure, shortened: as §1

Rho-A = target: T1, Rho-A (Homo sapiens, UniProt P61586); assay: as above; settings: read-out: Rho-A: % inh..
T1 construct: made in house
T1 sequence (P61586 whole entry): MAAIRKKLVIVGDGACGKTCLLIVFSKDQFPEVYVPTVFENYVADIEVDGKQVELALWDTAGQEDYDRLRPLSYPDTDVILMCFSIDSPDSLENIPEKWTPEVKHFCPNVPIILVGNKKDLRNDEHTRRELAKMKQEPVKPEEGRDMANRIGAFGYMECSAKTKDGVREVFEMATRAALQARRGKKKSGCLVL
Procedure, shortened: as §1

active/cleaved caspase 3 = assay: Cell-based caspase activation assay (western blot); set-up: species or system human
Description: (§2) Biological Example 4: Puma Expression and Caspases Activation Assay
(§3) Protocols for Cell-Based Puma Expression and Caspase Activation Assays
(§4) Cell lines: All human tumor-derived cancer cell lines were purchased from American Type Culture Collection. Human tumor-derived cancer cell lines Panc-1 (expressing KRas G12D mutant), MiaPaca-2 (expressing KRas G12C mutant), A549 (expressing KRas G12S mutant), and A375 (expressing wild type KRas) were grown in complete DMEM-High Glucose medium and NCI-H1975 (expressing wild type KRas), MM.1R (expressing wild type KRas) and IM.9 (expressing wild type KRas) were grown in RPMI1640 medium. Human tumor-derived cancer cell line BT-549 (expressing wild type KRas) was grown in RPMI1640 medium with 11.8U insulin. All mediums were supplemented with penicillin (100 U/mL), streptomycin (100 μg/mL), and 10% heat-inactivated FBS at 37° C. in a humidified incubator with 5% CO2.
(§5) Method: Cells were plated at 300,000 to 800,000 cells/well density in a 6-well plate in the presence of 10% FBS. The next day small molecules to be tested were added to the cells in the final concentration of 3 μM in the presence of 0.3% DMSO for 48 hours incubation at 37° C. For IC50 value determination, serial dilutions of compounds were added to cells under the same conditions. Following 48 hours of incubation cells were lysed with lysis buffer containing 1% Triton X-100, EDTA, and Halt™ Protease & Phosphatase Inhibitor Cocktail (Thermo Scientific). Protein concentration was assessed by BCA protein assay (Thermo Scientific). Increase expression of PUMA and active/cleaved forms of caspase 3, caspase 6 and caspase 9 were detected by western blot.
(§6) Western blot protocol: Equal amounts of protein (15-50 μg) were separated by SDS-PAGE and transferred to nitrocellulose membranes (Invitrogen by Thermo Fisher Scientific). The membrane was stained with Ponceau S Stain (Boston BioProducts) to verify uniform protein loading. Membranes were blocked with 10% milk and expression levels of PUMA was assessed by incubating overnight at 4° C. with the antibody PUMA (D30C10) from Cell Signaling Technology (#12450) and active/cleaved forms of caspase 3, caspase 6 and caspase 9 by incubating overnight at 4° C. with the following antibodies: cleaved caspase-3 (Asp175) (5A1E), cleaved caspase-6 (Asp162) and cleaved caspase-9 (Asp330) (D2D4) (all antibodies from Cell Signaling Technology). Then the membranes were incubated with HRP-conjugated secondary antibody (Jackson Immunoresearch, West Grove, PA). Bands were incubated in Amersham ECL Prime Western Blotting Detection Reagent (GE Healthcare) and visualized using the ChemiDoc MP imaging system (Bio-Rad).

active/cleaved caspase 6 = assay: Cell-based caspase activation assay (western blot); set-up: species or system human
Description: as §2, §3, §4, §5, §6

active/cleaved caspase 9 = assay: Cell-based caspase activation assay (western blot); set-up: species or system human
Description: as §2, §3, §4, §5, §6

| KRas G12C mutant + SOS: % inh. (KRas G12C mutant) | KRas G12C mutant: % inh. (KRas G12C mutant) | KRas Q61H mutant + SOS: % inh. (KRas Q61H mutant) | KRas Q61H mutant: % inh. (KRas Q61H mutant) | inhibition at 20 µM (Rho-A) | SMILES | Caspase 3 activation (active/cleaved caspase 3; A375, after 48 hours) | Caspase 3 activation (active/cleaved caspase 3; MiaPaca2, after 48 hours) | Caspase 6 activation (active/cleaved caspase 6; A375, after 48 hours) | Caspase 6 activation (active/cleaved caspase 6; MiaPaca2, after 48 hours) | Caspase 9 activation (active/cleaved caspase 9; A375, after 48 hours) | Caspase 9 activation (active/cleaved caspase 9; MiaPaca2, after 48 hours) | other results |
| --- | --- | --- | --- | --- | --- | --- | --- | --- | --- | --- | --- | --- |
| 0 (0 = 0% inhibition) | B (B = 26-49% inhibition) | 0 (0 = 0% inhibition) | A (A = 1-25% inhibition) | 0% | CO[C@H]1CC[C@@H](Nc2nc(-c3ccccn3)nn3cc(-c4ccn(C(C)C)n4)c(C)c23)C1 (racemic) [Compound 9, rac 6-(1-Isopropyl-1H-pyrazol-3-yl)-N-((1R,3S)-3-methoxycyclopentyl)-5-methyl-2-(pyridin-2-yl)pyrrolo[2,1-f][1,2,4]triazin-4-amine] | – | – | – | – | – | – | – |
| C (C = 50-75% inhibition) | C (C = 50-75% inhibition) | C (C = 50-75% inhibition) | C (C = 50-75% inhibition) | 76 to 100% | COc1cc(Nc2nc(-c3nccn3C)nn3cc(-c4ccn(C(C)C)n4)c(C)c23)ncn1 [Compound 6, 6-(1-Isopropyl-1H-pyrazol-3-yl)-N-(6-methoxypyrimidin-4-yl)-5-methyl-2-(1-methyl-1H-imidazol-2-yl)pyrrolo[2,1-f][1,2,4]triazin-4-amine] | yes | yes | yes | yes | yes | yes | Caspase 3 activation (active/cleaved caspase 3; A549, after 48 hours): yes; Caspase 3 activation (active/cleaved caspase 3; BT-549, after 48 hours): yes; Caspase 3 activation (active/cleaved caspase 3; Panc-1, after 48 hours): yes; Caspase 6 activation (active/cleaved caspase 6; A549, after 48 hours): yes; Caspase 6 activation (active/cleaved caspase 6; BT-549, after 48 hours): yes; Caspase 6 activation (active/cleaved caspase 6; Panc-1, after 48 hours): yes; Caspase 9 activation (active/cleaved caspase 9; A549, after 48 hours): yes; Caspase 9 activation (active/cleaved caspase 9; BT-549, after 48 hours): yes |
| A (A = 1-25% inhibition) | 0 (0 = 0% inhibition) | 0 (0 = 0% inhibition) | 0 (0 = 0% inhibition) | 0% | Cc1c(-c2ccn(C(C)C)n2)cn2nc(-c3ccccn3)nc(O)c12 [Compound 8, 6-(1-Isopropyl-1H-pyrazol-3-yl)-5-methyl-2-(pyridin-2-yl)pyrrolo[2,1-f][1,2,4]triazin-4-ol] | – | – | – | – | – | – | – |
| C (C = 50-75% inhibition) | D (D = 76-100% inhibition) | D (D = 76-100% inhibition) | C (C = 50-75% inhibition) | 76 to 100% | Cc1c(-c2ccn(C(C)C)n2)cn2nc(-c3nccn3C)nc(Nc3nccn3C)c12 [Compound 93, 6-(1-Isopropyl-1H-pyrazol-3-yl)-5-methyl-N,2-bis(1-methyl-1H-imidazol-2-yl)pyrrolo[2,1-f][1,2,4]triazin-4-amine] | – | – | – | – | – | – | – |
| B (B = 26-49% inhibition) | B (B = 26-49% inhibition) | C (C = 50-75% inhibition) | B (B = 26-49% inhibition) | 76 to 100% | COc1cc(Nc2nc(-c3nccn3C)nn3cc(-c4ccccn4)c(C)c23)ncn1 [Compound 94, N-(6-Methoxypyrimidin-4-yl)-5-methyl-2-(1-methyl-1H-imidazol-2-yl)-6-(pyridin-2-yl)pyrrolo[2,1-f][1,2,4]triazin-4-amine] | – | – | – | – | – | – | – |
| B (B = 26-49% inhibition) | B (B = 26-49% inhibition) | C (C = 50-75% inhibition) | C (C = 50-75% inhibition) | 76 to 100% | COc1ccnc(Nc2nc(-c3nccn3C)nn3cc(-c4ccn(C(F)F)n4)c(C)c23)n1 [Compound 95, 6-(1-(Difluoromethyl)-1H-pyrazol-3-yl)-N-(4-methoxypyrimidin-2-yl)-5-methyl-2-(1-methyl-1H-imidazol-2-yl)pyrrolo[2,1-f][1,2,4]triazin-4-amine] | – | – | – | – | – | – | – |
| B (B = 26-49% inhibition) | B (B = 26-49% inhibition) | – | – | – | Cc1c(-c2ccn(C)n2)cn2nc(-c3nccn3C)nc(Cl)c12 [Compound 99, 4-Chloro-5-methyl-2-(1-methyl-1H-imidazol-2-yl)-6-(1-methyl-1H-pyrazol-3-yl)pyrrolo[2,1-f][1,2,4]triazine] | – | – | – | – | – | – | – |
| – | – | – | – | – | COc1ccnc(Nc2nc(-c3nccn3C)nn3cc(-c4ccn(C)n4)c(C)c23)c1 [Compound 102, N-(4-Methoxypyridin-2-yl)-5-methyl-2-(1-methyl-1H-imidazol-2-yl)-6-(1-methyl-1H-pyrazol-3-yl)pyrrolo[2,1-f][1,2,4]triazin-4-amine] | yes | yes | yes | yes | yes | yes | Caspase 3 activation (active/cleaved caspase 3; A549, after 48 hours): yes; Caspase 3 activation (active/cleaved caspase 3; IM.9, after 48 hours): yes; Caspase 3 activation (active/cleaved caspase 3; MM.1R, after 48 hours): yes; Caspase 3 activation (active/cleaved caspase 3; NCI-H1975, after 48 hours): yes; Caspase 6 activation (active/cleaved caspase 6; A549, after 48 hours): yes; Caspase 6 activation (active/cleaved caspase 6; IM.9, after 48 hours): yes; Caspase 6 activation (active/cleaved caspase 6; MM.1R, after 48 hours): yes; Caspase 6 activation (active/cleaved caspase 6; NCI-H1975, after 48 hours): yes; Caspase 9 activation (active/cleaved caspase 9; A549, after 48 hours): yes; Caspase 9 activation (active/cleaved caspase 9; IM.9, after 48 hours): yes; Caspase 9 activation (active/cleaved caspase 9; MM.1R, after 48 hours): yes; Caspase 9 activation (active/cleaved caspase 9; NCI-H1975, after 48 hours): yes |
| – | – | – | – | – | Cc1c(-c2ccn(C)n2)cn2nc(-c3nccn3C)nc(Nc3cc4n(n3)CCO4)c12 [Compound 124, N-(5-Methyl-2-(1-methyl-1H-imidazol-2-yl)-6-(1-methyl-1H-pyrazol-3-yl)pyrrolo[2,1-f][1,2,4]triazin-4-yl)-2,3-dihydropyrazolo[5,1-b]oxazol-6-amine] | yes | yes | yes | yes | yes | yes | Caspase 3 activation (active/cleaved caspase 3; BT-549, after 48 hours): yes; Caspase 3 activation (active/cleaved caspase 3; HCC1806, after 48 hours): yes; Caspase 3 activation (active/cleaved caspase 3; NCI-H358, after 48 hours): yes; Caspase 6 activation (active/cleaved caspase 6; BT-549, after 48 hours): yes; Caspase 6 activation (active/cleaved caspase 6; HCC1806, after 48 hours): yes; Caspase 6 activation (active/cleaved caspase 6; NCI-H358, after 48 hours): yes; Caspase 9 activation (active/cleaved caspase 9; BT-549, after 48 hours): yes |

From patent US12459951B2, “Compounds that interact with RAS superfamily proteins for treatment of cancers, inflammatory diseases, rasopathies, and fibrotic disease” (SHY Therapeutics, LLC, priority 2022, dated 2025)
